Data reported in patent publication US5554359A, “Pigmentation enhancer and method” (priority 1994, dated 1996).

What was measured:
[1] = test system: tyrosinase activity in human foreskin organ cultures; assay: Tyrosinase activity in human foreskin organ cultures (tyrosine hydroxylase assay); format: cell-based; details: Table 2; 0.1 mM; 72 h; control 3.15 ± 0.1; triplicate ± s.d.
Experimental: At the time of surgical removal, human foreskins were placed on sterile gauze saturated with sterile IMDM medium (Iscove's modified Dulbecco's medium purchased from Irvine Scientific of Santa Ana, Calif.) for transportation from the Hospital nursery to the laboratory. The tissues were rinsed in sterile IMDM medium containing 500 U/ml penicillin and 500 μg/ml of streptomycin for 5 minutes. Under sterile conditions, an intradermal injection of medium was performed from the dermal side prior to dissection of the mucous membrane and lower dermis by scissors to make the thickness of skins equal. The foreskins were then cut into approximately 3 mm×3 mm squares and either frozen at -75° C. or placed in organ culture as described hereafter.
The organ culture medium was prepared from IMDM with glutamine supplemented with 20% horse serum, 5% fetal bovine serum, 100 U/ml penicillin, 100 μg/ml streptomycin and 3 mg/ml sodium bicarbonate. The serums were obtained from Hyclone Lab. Inc. of Logan Utah. Culture units were prepared by placing sterilized filters (AP20 025 00, Millipore) over sterilized support screens ([…] Swinnex filter support screens, Millipore) in the wells of 6-well tissue culture plates (Falcon 3046) with medium added to the wells such that the skin support screens floated and the filter absorbed the medium from beneath. The tissue samples were placed, epidermis up, on top of the saturated filters and incubated at 37° C. in a 5% CO2 humidified atmosphere. The medium was changed everyday. Harvested cultures were frozen at -75° C.
Tyrosinase activity in human skin organ cultures was determined by measuring the tyrosine hydroxylase activity of the enzyme. The assay measures the production of ^3 H2 O during the conversion of [^3 H]tyrosine to L-DOPA. Weighed skin preparations were incubated in 0.3 ml of a reaction mixture containing 0.01 mM of L-tyrosine, 5-6 uCi/ml of [^3 H]tyrosine and 0.1 mM L-DOPA in 0.1M of pH 6.8 phosphate buffer for 4 hours at 37° C. To terminate the reaction, 1 ml of phosphate buffer was added, the tubes vortexed, and 0.4 ml aliquots removed in triplicate and mixed with an equal volume of Norit SG activated charcoal (10% w/v, in 0.1N HCl). Following centrifugation at 2000×g for 10 min, the supernatants (0.5 ml) were placed in scintillation vials, scintillation fluid added, and vials counted in a TM Analytic 6895 scintillation counter equipped with a DPM processor.
Human foreskins were treated with the compounds shown in Table 1, placed in culture, and incubated for 72 hours. The skins were then assayed for tyrosinase activity with the tyrosine hydroxylase assay method as described herein.
The medium and compounds were changed daily. Tyrosinase activity was determined by measuring the tyrosine hydroxylase activity of the enzyme.
Human foreskin organ cultures were treated with the compounds listed in Table 3 for 3 days and tyrosinase activity determined as described herein. Theophylline was used at 1 mM.

[2] = test system: melanin in human melanocytes; assay: Melanin content in human melanocytes; format: cell-based; details: 48-hour exposure; IBMX
Experimental: (§1) The mouse melanoma cell lines used to study the effects of lysosomotropic agents herein were the Cloudman S91 cell line (ATCC no. CCL 53.1) and two subclones of this line developed in our laboratory, the amelanotic line, AM-7, and a melanotic line, MEL-11A. All melanoma cell lines were grown in Ham's F-10 nutrient medium supplemented with 10% horse serum, penicillin (100 units/ml), and streptomycin (100 μg/ml). The normal human melanocyte cell strains used in this study were derived from foreskins of either neonares or from boys 2-6 years old. Human melanocyte cultures were grown in Ham's F-10 nutrient medium supplemented with 10% horse serum, 5% fetal bovine serum (FBS), 32 nM TPA (12-O-tetradecanoylphorbol 13-acetate), 10^-4 M IBMX(3-isobutyl-1-methylxanthine), penicillin (100 units/ml), and streptomycin (100 μg/ml).
The amount of melanin in melanoma cells or in melanocytes was determined by incubating cell pellets in 2 ml of 1-N NaOH for 48 hours at 37° C. and then measuring the solubilized melanin at 400 nm.
Dose/response parameters for ammonium chloride action were determined. […] Since tyrosinase is the rate-limiting enzyme for melanin synthesis, the stimulation of this enzyme by ammonium chloride should lead to increased melanin content of stimulated cells. […] Ammonium chloride increased tyrosinase activity in melanocytes from white-skinned individuals twenty-fold within 24 hours and by this time melanin contents had increased two-fold. Two other lysosomotropic agents, monensin and nigericin, were tested for their effects on tyrosinase activity. […] Thus, lysosomotropic agents have the ability to stimulate tyrosinase activity and melanin production in human melanocytes derived from white-skinned individuals, and to reduce melanin production in melanocytes from black-skinned people.

[3] = test system: tyrosinase activity in human melanocytes; assay: Tyrosinase responses in human melanocytes (Table 6); format: cell-based
Experimental: as §1
(§2) To determine tyrosinase activity in situ in either melanoma cells or in human melanocyte cultures, the tyrosine hydroxylase activity of the enzyme was determined. Cells were seeded into 60-mm culture dishes at 2×10^5 cells/dish and allowed to attach overnight. The medium was then exchanged for the appropriate growth medium supplemented with 1 μCi/ml of [^3 H]tyrosine (L-ring-3,5-^3 H]-tyrosine, DuPont New England Nuclear), and with hormones, where indicated. Cells were grown in labeled medium for 24 hours, and at this time, the medium was removed and assayed for the presence of ^3 H2 O using the charcoal absorption method of Pomerantz. Tyrosinase activity in cell homogenates was determined by sonicating cell pellets in 0.1-M sodium phosphate buffer (pH 6.8) and then incubating 50-μl aliquots in 0.5 ml of a reaction mixture containing 0.1-mM tyrosine, 2 μCi/ml of [^3 H]tyrosine, 0.1-mM L-DOPA (dihydroxyphenylalanine), and 0.1 mM PMSF (phenylmethylsulfonyl fluoride) at 37° C. for 2 hours. Reactions were terminated by the addition of 1 ml of charcoal (10% w/v in 0.1-N HCl). Samples were centrifuged, and the supernatants removed for determination of the amount of ^3 H2 O produced.
Hormone responsiveness in human melanocyte cell cultures were examined (for these studies, melanocytes derived from skin type III were used). […] Tyrosinase activity and melanin content typically double with a 48-hour exposure to IBMX. […] The steroid hormones, for the most part, caused little, if any, change in tyrosinase activity at the concentrations used.

[4] = test system: tyrosinase activity in mouse melanoma cells; assay: Tyrosinase responses in mouse melanoma cells (Table 6); format: cell-based
Experimental: as §1
as §2, with “produced. […]” for “produced.”

[5] = test system: melanin in human melanocytes; details: three days; melanocyte cultures; cited from earlier work
[6] = test system: tyrosinase activity in mouse melanoma cells; details: Cloudman S91; cited from earlier work
[7] = test system: tyrosinase mRNA; details: three days; melanocyte cultures; cited from earlier work
[8] = test system: tyrosinase abundance in mouse melanoma cells; details: other studies; cited from earlier work
[9] = test system: tyrosinase activity in mouse melanoma cells; details: e.g., 10^-5 M; footnote b of Table 6; cited from earlier work

Compound | Tyrosinase Activity [1] | melanin content [2] | Tyrosinase Activity ([3]; 48-hour exposure, IBMX) | activity at 100 µM ([3]; Homo sapiens, Melanocyte, Table 6, 10^-7 M except IBMX 10^-4 M, theophylline 1 mM, ammonium chloride 10 mM, A23187 not given, melanocytes from skin type III, read-out: Effect on Tyrosinase Activity, Human Melanocyte) [%] | response of mouse melanoma cells ([4]; compounds that raise intracellular cAMP levels or MSH) | increase in melanin production [5] | mimicking of the MSH response [6] | change in amount of tyrosinase mRNA [7] | tyrosinase activity correlates with enzyme abundance [8] | Effect on Tyrosinase Activity, Human Melanocyte ([3]; Table 6, 10^-7 M except IBMX 10^-4 M, theophylline 1 mM, ammonium chloride 10 mM, A23187 not given, melanocytes from skin type III) | Effect on Tyrosinase Activity, Mouse Melanoma ([4]; Table 6, 10^-7 M except IBMX 10^-4 M, theophylline 1 mM, ammonium chloride 10 mM, A23187 not given) | effect on tyrosine activity at higher concentrations [9]
CC(C)Cn1c(=O)n(C)c(=O)c2[nH]cnc21 [IBMX, 3-isobutyl-1-methylxanthine] | 7.03 ± 0.49 pmoles ^3 H2 O/hour/mg skin | double | double | 150 to 200 | respond vigorously | fourfold increase | mimicked | not accompanied by any increase | correlates with an increase in enzyme abundance | – | – | –
CC1=C(/C=C/C(C)=C/C=C/C(C)=C/C(=O)O)C(C)(C)CCC1 [Retinoic Acid, all-trans] | – | – | – | – | – | – | – | – | – | Inhibited | Inhibited | stimulate tyrosine activity
